Laboratory results from patent US20060148842A1, “Nepetalactams and N-substituted derivatives thereof” (priority 2004, published 2006).

Each compound was assayed on Aedes aegypti mosquitoes (assay: in vitro Gupta box landing assay (insect repellency)). Conditions: 20 min; 1.0% (w/v) in IPA, 25 μL on Baudruche membrane; landings of female Aedes aegypti over 20 min vs IPA control.
Description: The products of Examples 1-15 were evaluated for insect repellency against Aedes aegypti mosqutioes in the in vitro Gupta box landing assay. In this method a chamber contained 5 wells, each covered by a Baudruche (animal intestine) membrane. Each well was filled with bovine blood containing sodium citrate (to prevent clotting) and ATP (72 mg ATP disodium salt per 26 ml of blood), and heated to 37° C. A volume of 25 μL of isopropyl alcohol (IPA) containing one test specimen or control was applied to each membrane. The concentrations were 1.0% (w/v) in IPA. The negative control was membrane surface treated with neat IPA, and the positive control was a 1.0% (w/v) solution of DEET.
After 5 min, approximately 250 4-day-old female Aedes aegypti mosquitoes were introduced into the chamber. The number of mosquitoes probing the membranes for each treatment was recorded at 2 min intervals over 20 min. The results obtained in this manner with respect to the compounds of Examples 1˜12 are depicted, respectively, in FIGS. 1-12 (labeled as Examples 16˜27) wherein each datum represents the mean of five replicate experiments.
where C=the total number of landings on the IPA control well, and T=the total number of landings on the test solution well. The % mean repellencies at 1% (w/v) with respect to the compounds of Examples 1˜15 are depicted in Table 2, wherein R refers to the substituent on nepetalactam.

Row | SMILES | pest or weed control at 10000 µg/mL
1 | CC1=CN(c2ccccc2)C(=O)[C@H]2[C@@H]1CC[C@@H]2C [Va, (4aS,7S,7aR)-4,7-dimethyl-2-phenyl-2,4a,5,6,7,7a-hexahydro-1H-cyclopenta[c]pyridin-1-one] | 93.1%
2 | C#CCN1C=C(C)[C@H]2CC[C@H](C)[C@H]2C1=O [IIIk, (4aS,7S,7aR)-2-n-propargyl-4,7-dimethyl-2,4a,5,6,7,7a-hexahydro-1H-cyclopenta[c]pyridin-1-one] | 95.6%
3 | CC1=CN(C(C)C)C(=O)[C@H]2[C@@H]1CC[C@@H]2C [IIIi, (4aS,7S,7aR)-2-n-isopropyl-4,7-dimethyl-2,4a,5,6,7,7a-hexahydro-1H-cyclopenta[c]pyridin-1-one] | 94.7%
4 | CCN1C=C(C)[C@H]2CC[C@H](C)[C@H]2C1=O [IIIb, (4aS,7S,7aR)-2-ethyl-4,7-dimethyl-2,4a,5,6,7,7a-hexahydro-1H-cyclopenta[c]pyridin-1-one] | 97.9%
5 | CCCN1C=C(C)[C@H]2CC[C@H](C)[C@H]2C1=O [IIIc, (4aS,7S,7aR)-2-n-propyl-4,7-dimethyl-2,4a,5,6,7,7a-hexahydro-1H-cyclopenta[c]pyridin-1-one] | 99.8%
6 | CC1=CN(C2CCCCC2)C(=O)[C@H]2[C@@H]1CC[C@@H]2C [IIIh, (4aS,7S,7aR)-2-n-cyclohexyl-4,7-dimethyl-2,4a,5,6,7,7a-hexahydro-1H-cyclopenta[c]pyridin-1-one] | 98.9%
7 | CCCCCCN1C=C(C)[C@H]2CC[C@H](C)[C@H]2C1=O [IIIf, (4aS,7S,7aR)-2-n-hexyl-4,7-dimethyl-2,4a,5,6,7,7a-hexahydro-1H-cyclopenta[c]pyridin-1-one] | 97.2%
8 | CC1=CN(c2ccc(Br)cc2)C(=O)[C@H]2[C@@H]1CC[C@@H]2C [Vc, (4aS,7S,7aR)-2-(4-bromophenyl)-4,7-dimethyl-2,4a,5,6,7,7a-hexahydro-1H-cyclopenta[c]pyridin-1-one] | 41.5%
9 | C=CCN1C=C(C)[C@H]2CC[C@H](C)[C@H]2C1=O [IIIj, (4aS,7S,7aR)-2-n-allyl-4,7-dimethyl-2,4a,5,6,7,7a-hexahydro-1H-cyclopenta[c]pyridin-1-one] | 78.1%
10 | CC1=CNC(=O)[C@H]2[C@@H]1CC[C@@H]2C [II, (4aS,7S,7aR)-4,7-dimethyl-2,4a,5,6,7,7a-hexahydro-1H-cyclopenta [c]pyridin-1-one] | 66%
11 | CCCCCN1C=C(C)[C@H]2CC[C@H](C)[C@H]2C1=O [IIIe, (4aS,7S,7aR)-2-n-pentyl-4,7-dimethyl-2,4a,5,6,7,7a-hexahydro-1H-cyclopenta[c]pyridin-1-one] | 97.5%
12 | CCCCN1C=C(C)[C@H]2CC[C@H](C)[C@H]2C1=O [IIId, (4aS,7S,7aR)-2-n-butyl-4,7-dimethyl-2,4a,5,6,7,7a-hexahydro-1H-cyclopenta[c]pyridin-1-one] | 97.3%
13 | CC1=CN(c2ccc(Cl)cc2)C(=O)[C@H]2[C@@H]1CC[C@@H]2C [Vb, (4aS,7S,7aR)-2-(4-chlorophenyl)-4,7-dimethyl-2,4a,5,6,7,7a-hexahydro-1H-cyclopenta[c]pyridin-1-one] | 75.3%
14 | CC1=CN(C)C(=O)[C@H]2[C@@H]1CC[C@@H]2C [IIIa, (4aS,7S,7aR)-2,4,7-trimethyl-2,4a,5,6,7,7a-hexahydro-1H-cyclopenta[c]pyridin-1-one] | 94.8%
15 | CCCCCCCCN1C=C(C)[C@H]2CC[C@H](C)[C@H]2C1=O [IIIg, (4aS,7S,7aR)-2-n-octyl-4,7-dimethyl-2,4a,5,6,7,7a-hexahydro-1H-cyclopenta[c]pyridin-1-one] | 93.2%
